These results are taken from ChEMBL document CHEMBL4396934, “Novel α,β-unsaturated hydroxamic acid derivatives overcome cisplatin resistance” (Bioorg Med Chem, 2019).

pKi: −log10 of the molar value. Active and inactive are the calls of the source. The rule behind the calls is not given here.

The nature of assay [1]: Potentiation of cisplatin-induced apoptosis in human Cal27CisR cells assessed as accumulation at sub-G1 phase at 1 uM preincubated for 48 hrs followed by cisplatin addition and further incubation for 24 hrs by propidium iodide staining based flow cytometry (reference value: 8.3 +/- 1.06%). In kind it is functional. In general terms: In flow cytometry, cells or beads pass a laser one at a time.

Assay [2] in a line: Potentiation of cisplatin-induced apoptosis in human Cal27CisR cells assessed as increase in accumulation at sub-G1 phase at 1 uM preincubated for 48 hrs followed by cisplatin addition and further incubation for 24 hrs by propidium iodide staining based flow cytometry relative to cisplatin alone. In kind it is functional.
The target of assay [3] is T1, Protein deacetylase HDAC6 (Homo sapiens, UniProt Q9UBN7).
T1 sequence (Q9UBN7 whole entry): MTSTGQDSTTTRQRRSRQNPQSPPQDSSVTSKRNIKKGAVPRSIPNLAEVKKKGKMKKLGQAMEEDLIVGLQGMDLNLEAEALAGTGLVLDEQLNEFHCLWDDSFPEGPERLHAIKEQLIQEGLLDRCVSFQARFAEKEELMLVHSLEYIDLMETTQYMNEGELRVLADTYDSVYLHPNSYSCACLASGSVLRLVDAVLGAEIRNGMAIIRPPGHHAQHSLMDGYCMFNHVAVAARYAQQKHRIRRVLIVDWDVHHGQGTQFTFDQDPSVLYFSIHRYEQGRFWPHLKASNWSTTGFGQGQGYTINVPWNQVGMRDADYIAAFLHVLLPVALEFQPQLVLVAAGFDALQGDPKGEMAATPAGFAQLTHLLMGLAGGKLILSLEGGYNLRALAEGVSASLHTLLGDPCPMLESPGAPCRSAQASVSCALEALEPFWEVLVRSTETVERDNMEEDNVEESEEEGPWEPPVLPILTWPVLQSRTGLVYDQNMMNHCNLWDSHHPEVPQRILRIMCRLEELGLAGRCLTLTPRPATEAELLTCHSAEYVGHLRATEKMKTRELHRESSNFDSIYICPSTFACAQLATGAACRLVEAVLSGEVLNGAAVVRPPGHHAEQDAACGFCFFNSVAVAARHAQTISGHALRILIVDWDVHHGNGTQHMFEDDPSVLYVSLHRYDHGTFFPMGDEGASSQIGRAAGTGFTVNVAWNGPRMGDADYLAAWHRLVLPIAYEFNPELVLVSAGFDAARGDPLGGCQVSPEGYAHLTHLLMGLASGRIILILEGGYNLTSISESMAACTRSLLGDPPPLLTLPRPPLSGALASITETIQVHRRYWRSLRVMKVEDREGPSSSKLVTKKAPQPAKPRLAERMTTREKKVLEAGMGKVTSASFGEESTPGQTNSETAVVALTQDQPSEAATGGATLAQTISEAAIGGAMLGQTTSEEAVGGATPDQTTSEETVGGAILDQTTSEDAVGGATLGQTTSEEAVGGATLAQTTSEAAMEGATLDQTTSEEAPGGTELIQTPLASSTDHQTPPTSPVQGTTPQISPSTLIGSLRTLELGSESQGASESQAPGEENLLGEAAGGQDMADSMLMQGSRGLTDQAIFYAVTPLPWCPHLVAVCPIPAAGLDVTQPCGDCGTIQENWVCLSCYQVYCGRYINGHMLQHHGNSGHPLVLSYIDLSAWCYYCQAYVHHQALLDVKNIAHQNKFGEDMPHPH
Briefly: Inhibition of N-terminal GST-tagged recombinant human HDAC6 (1 to 1215 residues) expressed in Baculovirus infected insect cells using Boc-Lys(Ac)-AMC as substrate preincubated for 5 mins followed by substrate addition and further incubation for 90 mins measured after 15 mins by microplate reader based fluorescence assay.

In assay [4] the test system is CAL-27. Briefly: Potentiation of cisplatin-induced apoptosis in human CAL27 cells assessed as caspase-3/7 activity at 0.5 uM preincubated for 48 hrs followed by cisplatin addition and further incubation for 24 hrs treated with 20 uM pan capsase inhibitor QVD for 30 mins prior to compound addition by CellEvent caspase 3/7 green detection reagent/Hoechst 33342 staining based arrayscan analysis. In kind it is functional, cell-based.

For assay [5], the system named is CAL-27. Briefly: Induction of apoptosis in human CAL27 cells assessed as accumulation at sub-G1 phase at 0.5 uM after 48 hrs by propidium iodide staining based flow cytometry. In kind it is functional, cell-based.
Assay [6] relates to CAL-27. As to the kind of experiment: Potentiation of cisplatin-induced apoptosis in human CAL27 cells assessed as accumulation at sub-G1 phase at 0.5 uM preincubated for 48 hrs followed by cisplatin addition and further incubation for 24 hrs by propidium iodide staining based flow cytometry (reference value: 11.5 +/- 0.89%). In kind it is functional.

In the case of `COc1ccc(NC(=O)NOCc2ccc(/C=C/C(=O)NO)cc2)cc1`, the Activity turned out to be 52.2% in assay [1] and 36.7% in the assay with CAL-27 [6]. The “fold change (FC)” value in assay [2] turned out to be 6. Moreover, the pKi in assay [3] is 6.92. In addition, the result in the assay on CAL-27 [4] and with CAL-27 [5] was inactive.
Consider `O=C(/C=C/c1ccc(CONC(=O)c2ccc3ccccc3n2)cc1)NO`, for which the Activity in assay [1] turned out to be 38.9%; in the assay on CAL-27 [6], 34.5%. Further, in assay [2], the “fold change (FC)” value amounted to 4.7. In addition, the pKi in assay [3] was 7.00. The result in the assay with CAL-27 [4] and in the assay with CAL-27 [5] was inactive.

As a reminder, the pKi is the Ki on a negative log10 scale, so that one unit is a factor of ten.
